The results in this text go back to patent publication US20060014790A1, “Methods of treatment of amyloidosis using spirocyclohexane aspartyl-protease inhibitors” (priority 2004, published 2006).

Structures are written as SMILES.

The first series has as its system A-beta. The experiment in a line: Efficacy of compounds to inhibit A-beta concentration (% inhibition vs vehicle control). The series is classed as in vivo, rat. The note with it: plasma. As for the experimental part: Efficacious compounds of the present invention are those able to decrease the amount of A-beta produced compared to a control, where beta-secretase mediated cleavage is observed and measured in the absence of the compounds. Detection of efficacy can be by analysis of A-beta levels, for example, by immunoassay, fluorometric or chromogenic assay, HPLC, or other means of detection. The efficacy of the compounds of formula (I) was determined as a percentage inhibition corresponding to A-beta concentrations for tissue treated and untreated with compound.
The invention encompasses compounds of formula (I) that are efficacious.
As for `CC(=O)NC(Cc1cc(F)cc(F)c1)C(O)CNC1(c2cccc(C(C)(C)C)c2)CCC(=O)CC1` (stereo not drawn) [Example 195-3, N-[3-[1-(3-tert-Butyl-phenyl)-4-oxo-cyclohexylamino]-1-(3,5-difluoro-benzyl)-2-hydroxy-propyl]-acetamide], the “Efficacy (% Inhibition, 100 mg/kg) plasma” value was 58%. Still for that read-out and setting: the value for `CC(=O)NC(Cc1cc(F)cc(F)c1)C(O)CNC1(c2cccc(-n3cccn3)c2)CCCCC1` (stereo not drawn) [Example 195-4, N-{1-(3,5-Difluoro-benzyl)-2-hydroxy-3-[1-(3-pyrazol-1-yl-phenyl)-cyclohexylamino]-propyl}-acetamide] was 67%. The same measure, in the same setting: the value for `COC1CCC(NCC(O)C(Cc2cc(F)cc(F)c2)NC(C)=O)(c2cccc(C(C)(C)C)c2)CC1` (stereo not drawn) [Example 195-6, N-[3-[1-(3-tert-Butyl-phenyl)-4-methoxy-cyclohexylamino]-1-(3,5-difluoro-benzyl)-2-hydroxy-propyl]-acetamide] was 49%; that for `CSC1CCC(NCC(O)C(Cc2cc(F)cc(F)c2)NC(C)=O)(c2cccc(C(C)(C)C)c2)CC1` (stereo not drawn) [Example 195-9, N-[3-[1-(3-tert-Butyl-phenyl)-4-methylsulfanyl-cyclohexylamino]-1-(3,5-difluoro-benzyl)-2-hydroxy-propyl]-acetamide] was 38%; that for `CC(=O)NC(Cc1cc(F)cc(F)c1)C(O)CNC1(c2cc(F)cc(C(C)(C)C)c2)CCCCC1` (stereo not drawn) [Example 195-10, N-(4-(1-(3-tert-butyl-5-fluorophenyl)cyclohexylamino)-1-(3,5-difluorophenyl)-3-hydroxybutan-2-yl)acetamide] was 30%.

Test system in the next series: not listed separately
The experiment in a line: Brain uptake (brain penetration after IV administration). The conditions noted are these: CF-1, mouse, in vivo, 10 μmol/kg. As for the experimental part: The following assay was employed to determine the brain penetration of compounds encompassed by the present invention.
In-life phase: Test compounds were administered to CF-1 (20-30 g) mice at 10 μmol/kg (4 to 7 mg/kg) following IV administration in the tail vein. Two time-points, 5 and 60 min, were collected post dose. Four mice were harvested for heparinized plasma and non-perfused brains at each time-point for a total of 8 mice per compound.
Analytical phase: Samples were extracted and evaporated to dryness, then reconstituted and injected onto a reverse phase chromatographic column while monitoring the effluent with a triple quadrupole mass spectrometer. Quantitation was then performed with a 1/x^2 weighted fit of the least-squares regression from calibration standards prepared in parallel with the in vivo samples. The lower limit of quantitation (LOQ) is generally 1 ng/mL and 0.5 ng/g for the plasma and brain respectively. Data was reported in micromolar (μM) units. Brain levels were corrected for plasma volumes (16 μL/g).
`CC(=O)NC(Cc1cc(F)cc(F)c1)C(O)CNC1(c2cccc(C(C)(C)C)c2)CCCCC1` (stereo not drawn) [Example 198-1, N-[3-[1-(3-tert-Butyl-phenyl)-cyclohexylamino]-1-(3,5-difluoro-benzyl)-2-hydroxy-propyl]-acetamide]: the Kp at 5 min was found to be 1.7 and the Kp at 10 min was 3. For `CC(=O)NC(Cc1cc(F)cc(F)c1)C(O)CNC1(c2cccc(C(C)C)c2)CCC(=O)CC1` (stereo not drawn) [Example 198-3, N-{1-(3,5-Difluoro-benzyl)-2-hydroxy-3-[1-(3-isopropyl-phenyl)-4-oxo-cyclohexylamino]-propyl}-acetamide] the same measures were 0.5 and 8.4. The like results for `CC(=O)NC(Cc1cc(F)cc(F)c1)C(O)CNC1(c2cccc(-c3ccsc3)c2)CCCCC1` (stereo not drawn) [Example 198-4, N-{1-(3,5-Difluoro-benzyl)-2-hydroxy-3-[1-(3-thiophen-3-yl-phenyl)-cyclohexylamino]-propyl}acetamide] were, in that order, 0.7 and 3.7.

Test system in another series: not listed separately
Description: Oral bioavailability after IV and PO administration. The series is classed as in vivo. The note with it: male, Sprague-Dawley, rat, plasma, read-out: Rat % F. As for the experimental part: The invention encompasses compounds of formula (I) that are orally bioavailable. Oral bioavailability can be determined following both an intravenous (IV) and oral (PO) administration of a test compound.
Oral Bioavailability was determined in the male Sprague-Dawley rat following both IV and PO administration of test compound. Two month-old male rats (250-300 g) were surgically implanted with polyethylene (PE-50) cannula in the jugular vein while under isoflurane anesthesia the day before the in-life phase. Animals were fasted overnight with water ad libitum, then dosed the next day. The dosing regime consisted of either a 5 mg/kg (2.5 mL/kg) IV dose (N=3) administered to the jugular vein cannula, then flushed with saline, or a 10 mg/kg (5 mL/kg) PO dose (N=3) by esophageal gavage. Compounds were formulated with 10% Solutol in 5% dextrose at 2 mg/mL. […]
Compounds were extracted from samples following precipitation of the plasma proteins by methanol. […] Experimental samples were compared to calibration curves prepared in parallel with aged match rat plasma and quantitated with a weighted 1/x linear regression. […]
AUC is calculated from the linear trapezoidal rule by AUC=((C2+C1)/2)×(T2−T1) where C is concentration and T is time.
Pharmacokinetic parameters were calculated by a non-compartmental approach. […]
For the compound `CC(=O)NC(Cc1cc(F)cc(F)c1)C(O)CNC1(c2cccc(C(C)(C)C)c2)CCCCC1` (stereo not drawn) [Example 197-1, N-[3-[1-(3-tert-Butyl-phenyl)-cyclohexylamino]-1-(3,5-difluoro-benzyl)-2-hydroxy-propyl]-acetamide], the bioavailability was found to be 20.2%.
